Source: patent publication US20230119833A1, “NMR METHODS FOR CHARACTERIZING IRON SUCROSE” (Amphastar Pharmaceuticals, Inc., priority 2020, published 2023)

Assay: 13C NMR peak width at half-height (PWHH) and relative PWHH of sucrose peaks, Example 1
Type: physicochemical
Details: for PWHH, three lots mean, Average: average of the twelve 13C peaks
Description: In Example 1, ^13C NMR was performed on three (3) samples (e.g 3 lots) of a comparator iron sucrose drug product having an equivalent concentration of 20 mg base/mL, and three (3) samples (e.g 3 lots) of a tested iron sucrose drug product having an equivalent concentration of 20 mg base/mL were analyzed by ^13C NMR in Example 1. The comparator product was Venofer® having an equivalent concentration of 20 mg base/mL. In addition, ^13C NMR was also performed on 3 samples (e.g. 3 lots) of free sucrose sample. Free sucrose is sucrose only with no iron.
The average PWHH of the 3 lots of the comparator iron sucrose drug product is identified as w in Tables 1 and 2. The average PWHH of the 3 lots of the tested iron sucrose drug productis identified as w in Tables 1 and 2. The average PWHH of the 3 lots of sucrose only sample is identified as w0 in Tables 1 and 2.
In addition to PWHH, a RPWHH is another characterization method disclosed herein. […] As provided in Table 1, the RPWHH averaged among the twelve (12) C peaks and the 3 lots for: (i) w1/wo is 8.5 f 1.0, and (ii) w2/wo is 7.9±1.1.

Which results are given for `OC[C@H]1O[C@@](CO)(O[C@H]2O[C@H](CO)[C@@H](O)[C@H](O)[C@H]2O)[C@@H](O)[C@@H]1O` [Sucrose Only, sucrose]?
PWHH, three lots mean (13C Peak No. 1, 106.0 ppm, Fructose, Carbon Atom No. 8): 10.6 ppb; PWHH, three lots mean (13C Peak No. 2, 95.0 ppm, Glucose, Carbon Atom No. 1): 14.7 ppb; PWHH, three lots mean (13C Peak No. 3, 84.0 ppm, Fructose, Carbon Atom No. 11): 13.4 ppb; PWHH, three lots mean (13C Peak No. 4, 79.0 ppm, Fructose, Carbon Atom No. 9): 16.3 ppb; PWHH, three lots mean (13C Peak No. 5, 76.0 ppm, Fructose, Carbon Atom No. 10): 15.8 ppb; PWHH, three lots mean (13C Peak No. 6, 75.4 ppm, Glucose, Carbon Atom No. 3): 14.3 ppb; PWHH, three lots mean (13C Peak No. 7, 75.2 ppm, Glucose, Carbon Atom No. 5): 14.9 ppb; PWHH, three lots mean (13C Peak No. 8, 73.9 ppm, Glucose, Carbon Atom No. 2): 15.7 ppb; PWHH, three lots mean (13C Peak No. 9, 72.0 ppm, Glucose, Carbon Atom No. 4): 13.7 ppb; PWHH, three lots mean (13C Peak No. 10, 65.2 ppm, Fructose, Carbon Atom No. 7): 16.2 ppb; PWHH, three lots mean (13C Peak No. 11, 64.1 ppm, Fructose, Carbon Atom No. 12): 17.6 ppb; PWHH, three lots mean (13C Peak No. 12, 62.9 ppm, Glucose, Carbon Atom No. 6): 17.2 ppb; PWHH, three lots mean, Average: 15.0 ppb; PWHH, three lots mean, Average (listed as w0): 15±2 ppb
